# According to patent publication US11590116B2 (THERAVANCE BIOPHARMA R&D IP, LLC, priority 2019, dated 2023):
# Columns and labels:
# [1] = molecular target: T1, recombinant human ALK5 (TGF-βR1) protein (Homo sapiens, UniProt P36897); assay: Biochemical ALK5 (TGF-βR1) assay to measure pKi (LANCE Ultra ULight kinase assay); conditions: apparent pKi from pIC50 by Cheng-Prusoff, read-out: ALK5 pKi (converted)
# T1 construct: purchased Life Technologies PR9075A
# T1 sequence (P36897 34-503): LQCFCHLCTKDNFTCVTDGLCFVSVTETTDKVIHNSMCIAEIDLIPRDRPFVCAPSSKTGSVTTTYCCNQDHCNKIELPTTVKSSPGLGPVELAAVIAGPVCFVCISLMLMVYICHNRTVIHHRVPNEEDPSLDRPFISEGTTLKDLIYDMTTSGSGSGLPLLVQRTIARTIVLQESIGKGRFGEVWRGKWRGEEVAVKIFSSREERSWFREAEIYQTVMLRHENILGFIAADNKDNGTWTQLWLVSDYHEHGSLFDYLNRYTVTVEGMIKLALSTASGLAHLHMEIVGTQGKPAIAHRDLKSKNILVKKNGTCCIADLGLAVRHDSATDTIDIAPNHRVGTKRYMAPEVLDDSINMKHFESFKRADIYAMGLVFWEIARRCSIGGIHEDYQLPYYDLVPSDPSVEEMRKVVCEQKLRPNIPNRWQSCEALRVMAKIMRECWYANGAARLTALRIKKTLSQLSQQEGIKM
# Procedure, shortened: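 Compounds (10 μM to 25 pM) preincubated 60 minutes at room temperature with enzyme, then reaction run 60 minutes at 37° C with ATP added as 125 μM (5× final). Stopped with EDTA plus Eu-anti-phospho-Topoisomerase 2-alpha (Thr1342) antibody, TR-FRET read at 665 nm; pIC50 converted to pKi via Cheng-Prusoff.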
# [2] = test system: TGF-β-stimulated SMAD3 phosphorylation in BEAS-2B cells; assay: Cellular ALK5 potency assay, inhibition of TGF-β stimulated pSMAD3 formation in BEAS-2B cells; assay type: cell-based; conditions: Homo sapiens; inhibition of TGF-β stimulated pSMAD3 formation, BEAS-2B cells; read-out: BEAS2B pIC50 (converted)
# Procedure, shortened: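 Cells seeded overnight; rinse with supplemented HBSS; compound 1 h at 37 °C; TGF-β 10 ng/mL final, 30 min; lyse; AlphaLISA acceptor and detector beads 2 h apart, read next day. Potency expressed as pIC50.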
Ki [1] [nM],SMILES,IC50 [2] [nM]
0.398 to 3.16,"Cc1cccc(-c2n[nH]cc2-c2ccc3nccc(C(N)=O)c3n2)n1 [Compound 806, 6-[3-(6-methyl-2-pyridyl)-1H-pyrazol-4-yl]-1,5-naphthyridine-4-carboxamide]",25.1 to 158
< 0.0316,"Cc1cccc(-c2n[nH]cc2-c2ccc3ncc(-c4ccnc(C#N)c4)cc3n2)n1 [Compound 9, 4-[6-[3-(6-methyl-2-pyridyl)-1H-pyrazol-4-yl]-1,5-naphthyridin-3-yl]pyridine-2-carbonitrile]",< 20
0.0398 to 0.316,"Cc1cccc(-c2[nH]ncc2-c2ccc3ncc(C(=O)O[C@H]4CCNC4)cc3c2)n1 [Compound 1218, [(3S)-pyrrolidin-3-yl]6-[5-(6-methyl-2-pyridyl)-1H-pyrazol-4-yl]quinoline-3-carboxylate]",25.1 to 158
< 0.0316,"CNCCn1ccc(-c2cnc3ccc(-c4nc[nH]c4-c4cccc(C)n4)nc3c2)n1 [Compound 152, N-methyl-2-[3-[6-[5-(6-methyl-2-pyridyl)-1H-imidazol-4-yl]-1,5-naphthyridin-3-yl]pyrazol-1-yl]ethanamine]",25.1 to 158
0.398 to 3.16,"Cc1cccc(-c2[nH]cnc2-c2ccc3ncc(-c4cnc(C(=O)O)nc4)cc3c2)n1 [Compound 1142, 5-[6-[5-(6-methyl-2-pyridyl)-1H-imidazol-4-yl]-3-quinolyl]pyrimidine-2-carboxylic acid]",1580 to 10000
0.0398 to 0.316,"Cc1cccc(-c2[nH]cnc2-c2ccc3ncc(-c4nc(C(=O)O[C@@H]5CCN(C)C5)cs4)cc3c2)n1 [Compound 744, [(3R)-1-methylpyrrolidin-3-yl] 2-[6-[5-(6-methyl-2-pyridyl)-1H-imidazol-4-yl]-3-quinolyl]thiazole-4-carboxylate]",25.1 to 158
0.0398 to 0.316,"Cc1cccc(-c2[nH]cnc2-c2ccc3ncc(C(=O)OCCCCN4CCCC4)cc3c2)n1 [Compound 714, 4-pyrrolidin-1-ylbutyl 6-[5-(6-methyl-2-pyridyl)-1H-imidazol-4-yl]quinoline-3-carboxylate]",25.1 to 158
0.0398 to 0.316,"Cc1cccc(-c2n[nH]cc2-c2ccc3nccc(C(=O)NCCN4CCOCC4)c3n2)n1 [Compound 802, 6-[3-(6-methyl-2-pyridyl)-1H-pyrazol-4-yl]-N-(2-morpholinoethyl)-1,5-naphthyridine-4-carboxamide]",200 to 1260
< 0.0316,"Cc1nc(-c2n[nH]cc2-c2ccc3ncc(-c4cc5n(n4)CCCN5)cc3n2)ccc1F [Compound 651, 2-[3-(5-fluoro-6-methyl-2-pyridyl)-1H-pyrazol-4-yl]-7-(4,5,6,7-tetrahydropyrazolo[1,5-a]pyrimidin-2-yl)-1,5-naphthyridine]",< 20
< 0.0316,"CNCCn1cc(-c2cnc3ccc(-c4nn[nH]c4-c4cccc(C)n4)nc3c2)cn1 [Compound 29, N-methyl-2-(4-(6-(5-(6-methylpyridin-2-yl)-1H-1,2,3-triazol-4-yl)-1,5-naphthyridin-3-yl)-1H-pyrazol-1-yl)ethan-1-amine]",200 to 1260
0.0398 to 0.316,"Cc1cccc(-c2[nH]cnc2-c2ccc3ncc(-c4ccc(C(=O)O)s4)cc3c2)n1 [Compound 1005, 5-(6-(5-(6-methylpyridin-2-yl)-1H-imidazol-4-yl)quinolin-3-yl)thiophene-2-carboxylic acid]",1580 to 10000
< 0.0316,"Cc1cccc(-c2n[nH]cc2-c2ccc3ncc(-c4cnn(CC(=O)O)c4)cc3n2)n1 [Compound 240, 2-[4-[6-[3-(6-methyl-2-pyridyl)-1H-pyrazol-4-yl]-1,5-naphthyridin-3-yl]pyrazol-1-yl]acetic acid]",25.1 to 158
0.0398 to 0.316,"Cc1cccc(-c2[nH]cnc2-c2ccc3ncc(NCCN4CCCC4)cc3c2)n1 [Compound 30, 6-[5-(6-methyl-2-pyridyl)-1H-imidazol-4-yl]-N-(2-pyrrolidin-1-ylethyl)quinolin-3-amine]",25.1 to 158
